The source of these data is patent US9192672B2, “Zwitterion solution for low-volume therapeutic delivery” (Wayne State University Board of Governors, priority 2007, dated 2015).

Values after ≈ are worked out from the molar mass of the structure shown. Bounds are passed on as bounds.

Data set [1] is described as follows: physchem. The note with it: aqueous buffer, thermodynamic from solid.
Data set [2] in a line: Solubility in saline. It is filed as physicochemical. The following applies: for solubility: saline, saline or isotonic.
Data set [3] is described as follows: Solubility in artificial cerebrospinal fluid (aCSF). The note with it: Table 2, artificial CSF.
A short description of data set [4]: physchem. The note with it: saline or isotonic, thermodynamic from solid.
The conditions of data set [5]: cited from earlier work.
Setting [6] is: artificial cerebrospinal fluid (aCSF).

The molecule `COCC1=C(C(=O)O)N2C(=O)[C@@H](NC(=O)/C(=N\OC)c3csc(N)n3)[C@H]2SC1` [cefpodoxime] had a solubility in data set [1] greater than 205 µg/mL.

In the case of `CC(Cc1ccc(OCC(=O)O)cc1)NCC(O)c1csc(C(F)(F)F)n1` (stereo not shown) [(4-{2-[2-hydroxy-2-(2-trifluoromethyl-thiazol-4-yl)-ethylamino]-propyl}-phenoxy)-acetic acid], in data set [1], the solubility was greater than 205 µg/mL.

On to `CCOC(=O)C1=C(COCCNC(=O)/C=C\C(=O)O)NC(C)=C(C(=O)OC)C1c1ccccc1Cl` (stereo not shown) [(Z)-4-[(2-{[4-(2-chlorophenyl)-3-(ethoxycarbonyl)-5-(methoxycarbonyl)-6-methyl-1,4-dihydro-2-pyridinyl]methoxy}ethyl)amino]-4-oxo-2-butenoic acid], for which the solubility in data set [1] (MPI solution or aCSF) was greater than 205 µg/mL.

`NC1C2CN(c3nc4c(cc3F)c(=O)c(C(=O)O)cn4-c3ccc(F)cc3F)CC12` (stereo not shown) [7-(6-amino-3-aza-bicyclo[3.1.0]hex-3-yl)-1-(2,4-difluoro-phenyl)-6-fluoro-4-oxo-1,4-dihydro-[1,8]naphthyridine-3-carboxylic acid] registered a solubility in data set [1] greater than 205 µg/mL.

With `CC(=O)OCC1=C(C(=O)O)N2C(=O)[C@@H](NC(=O)CSc3ccncc3)[C@H]2SC1` [cephaprine], in data set [2] (Table 2, saline), the “Solubility In Saline” value came to 1000 µg/mL (≈ 2360 µM). For the same molecule, in data set [3], the “Solubility In Artificial CSF” value is greater than 1200 µg/mL.

Turning to `CO/N=C(\C(=O)N[C@@H]1C(=O)N2C(C(=O)[O-])=C(C[N+]3(C)CCCC3)CS[C@H]12)c1csc(N)n1` [cefepime], the solubility in data set [2] (Table 2, saline) was 66 µg/mL (≈ 137 µM); in data set [1] it was greater than 205 µg/mL; in data set [4], greater than 78 µg/mL.

As to `C=CC1=C(C(=O)O)N2C(=O)[C@@H](NC(=O)/C(=N\O)c3csc(N)n3)[C@H]2SC1` [cefdinir], in data set [1], the solubility was greater than 205 µg/mL.

Consider `NCC(CC(=O)O)c1ccc(Cl)cc1` (stereo not shown) [baclofen], for which the “Concentration achieved in aCSF” value in data set [5] (differing forms of aCSF, earlier in vivo studies) is listed as “less than 0.21 mg/ml”. For the same molecule, the “Solubility in aqueous saline solution” value in data set [5] (extreme heating at 100° Celsius, sonication, high speed stirring, US 2006/0009523) was no more than 12000 µg/mL. Further, the “Concentration by back titration method” value in data set [5] (initial dissolution in acid pH below 3.87, then base, US 2006/0009523) is roughly 10000 µg/mL.

Regarding `CO/N=C(\C(=O)N[C@@H]1C(=O)N2C(C(=O)O)=C(CSc3nc(=O)c(=O)[nH]n3C)CS[C@H]12)c1csc(N)n1` [Ceftriaxone, ceftriaxone], the solubility in data set [2] (Table 1, saline) is 205 µg/mL (≈ 370 µM); in data set [2] (Table 2, saline), 205 µg/mL (≈ 370 µM); in data set [2] (text of Examples 8-14), 205 µg/mL (≈ 370 µM); in data set [1] (MPI solution or aCSF), greater than 205 µg/mL; in data set [1] (multivalent physiologic ion (MPI) solution) it was no less than 700 µg/mL; in data set [4] (setting [6]), greater than 250 µg/mL. The “Solubility In Artificial CSF” value in data set [3] was greater than 250 µg/mL.

Turning to `C=CC1=C(C(=O)O)N2C(=O)[C@@H](NC(=O)/C(=N\OCC(=O)O)c3csc(N)n3)[C@H]2SC1` [cefixime], the “Solubility In Saline” value in data set [2] (Table 2, saline) turned out to be 68 µg/mL (≈ 150 µM). Moreover, the solubility in data set [2] (Table 2, saline) was 55 µg/mL (≈ 121 µM); in data set [1] (MPI solution or aCSF), greater than 205 µg/mL; in data set [4] (setting [6]) it was greater than 72 µg/mL. Further, the “Solubility In Artificial CSF” value in data set [3] is greater than 80 µg/mL.

Broadly, the solubility is the concentration that dissolves in the medium under given conditions. Low values mean little dissolved substance, high ones much dissolved substance.
